Measurements reported in patent US20030207400A1, “Vectors for dna delivery” (priority 2003, published 2003).

Tested on: plasmid pCMV/mEPO
Experiment: Gel electrophoresis of complexes of plasmid and fluorescently labelled polyamides
Type: binding
Details: agarose gel, after 10 min or 5 hr incubation; control rhodamine-peptide
Procedure: The ability of the polyamides to bind the DNA plasmid was assessed by gel electrophoresis of complexes of plasmid and fluorescently labelled polyamides.
A plasmid pCMV/mEPO was constructed by inserting the mouse EPO (mEPO) coding sequence as a EcoRI-BamHI 0.6 Kb fragment into pViJnsB (Montgomery, D. L., Shiver J. W., Leander K. R., Perry, H. C., Friedman, A., Martinez, D., Ulmer, J. B., Donnelly, J. J., Liu, M. A. (1993) DNA Cell. Biol. 12, 777-783.), which contains the CMV immediate/early region promoter and enhancer with intron A followed by the BGH polyadenylation signal. The mouse EPO coding region including 40 bp of the 5′ untranslated region (Shoemaker, C. B., & Mitsock, L. D. (1986) Mol. Cell. Biol. 6, 849-858) was assembled from synthetic oligonucleotides as described (Stemmer, W. P. C, Crameri, A., Ha, K. D., Brennan, T. M., & Heyneker, H. L. (1995) Gene 164, 49-53.).
In a typical experiment either the rhodamine labelled polyamide (33), the peptide-polyamide (35) and the correspondent rhodamine-peptide as control, were dissolved in DMSO at a 0.55 mM concentration. Serial dilutions of the polyamides and the peptide were prepared in DMSO. The plasmid stock solution was 0.54 μM. […]

“Rhodamine-Aoc-Pro-Lys-Lys-Lys-Arg-Lys-Val-Gluu-Asp-Pro-Tyr-Lys(Br—CH2—CO)-Gly-Gly-CO—NH2 [compound 34]” was tested, and the “co-migration of the fluorescent label with the plasmid” value was “does not co-migrate with the plasmid”.
